# Reference: patent US4444776A, “Dipyrido (4,3-B) (3,4-F) indoles, process for obtaining them, therapeutical use and pharmaceutical compositions” (priority 1977, dated 1984)
# Tests used:
# [1] = system: L 1210 leukemia; assay: Test 10: comparison of antitumoral activity with known products, L 1210 (Tables V-VII); type: in vivo, mouse; details: J+3
# Description: Test 10: Comparison of the antitumoral activity of the compound according to example 7 with that of known products
# The compound of example 7, i.e. 1-(γ-diethylaminopropyl)amino-5-methyl-dipyrido-[4,3-b][3,4-f] indole or known compounds were injected into L 1210 leukemic mice 1 or 3 days after the inoculation of the cells at the doses indicated in tables V to VII and the mean survival time (MST) and the precentage of increased life span (ILS %) were measured.
# Indications concerned the known products used in this example and particularly their antitumoral properties, their secondary effects and their use in man may be found in "La Chimiotherapie des Cancers", by G. MATHE and M. KENIS Expansion Scientifique Francaise, 3rd edition, Paris 1975.
# [2] = system: tumoral strain derived from the murine leukemia due to the C. FRIEND virus; assay: Test 7: antitumoral activity in vitro on Friend leukemia tumoral strain; type: cell-based; details: HUM = 1
# Description: Test 7: Study of the antitumoral activity in vitro
# This activity was measured on a tumoral strain derived from the murine leukemia due to the C. FRIEND virus.
# The tumoral cells multiply in suspension in a "RPMI 1640" medium (Catalogue of GIBCO Bio-cult. Ltd. Washington Road, Sandyford Industrial Estate, PAISLEY PA 3 4EP, Renfrewshire, Scotland) supplemented with 20% of embryonary calf serum, penicillin and streptomycine. The duplication time of these cells is 11 hours. The growth fraction is equal to 1 or very close to 1 (all the cells are in the cycle). The cultures are sub-culturedat time t=0 at the concentration of 2.10^5 cells per ml in Falcon dishes containing 4 ml of medium. After twenty four hours, the product to be tested was added, i.e. at a moment when the cultures are in exponential phase of growth. Twenty four hours after the addition of the product, the cells are counted and the percentage of living cells determined by an exclusion test using "trypan" blue.
# [3] = system: L 1210 leukemia; assay: Test 1: antitumoral properties on L 1210 leukemia (Table I); type: in vivo, mouse; details: 0,1 mg/mouse
# Description: The lower animal antitumoral properties of the compounds according to the invention have been determined by their curative action on inoculated test L-1210 leukemia. [ZUBROD C. G., Proc. Nat. Acad. Sci. 1972, 69, 1042-1047 and SCHEPARTZ SA. SCREENING, 1971, CANCER Chemother. Rep. Part 3 vol.2 p.3].
# This leukemia is maintained in ascitic form by passage (i.p. route) on CBDl (C57 B16×DBA/2)F1 mice. The preparation to be tested are injected by the intraperitoneal route at least one day after the inoculation of the cells (one injection only). The results are expressed in increased life span per cent (ILS %) according to KESSEL et al. Cancer Res. 1971, 31, 1883-1887) or in percentage of the number of cells killed by the product (the survival of the animals is proportional to the number of cells injected).
# The following tests were made in groups of 10 mice, unless stipulated to the contrary.
# Test 1: Study of the antitumoral properties of the compounds of the invention on L 1210 leukemia
# The lower animal antitumoral properties of the compounds according to the invention were determined by their curative action on test inoculated L 1210 leukemia.
# This leukemia was maintained on CBD 1 (C 57 B 16×DBA/2) F1 mice. The compounds to be tested were injected by the IP route one or more days after the inoculation of the cells (single injection). The results obtained, shown in table I hereinafter, are expressed in percentage of increase of life span (ILS %) and in percentage of the number of cells killed by the compound to be tested, the survival of the animals being proportional to the number of cells injected.
# The percentage of the like span ILS % (Cancer. Res. 1971, 31, 1883-1887) is the following ratio: [formula] S^t =survival of the treated animals S^c =survival of the control animals
# [4] = system: L1210 leukemia; assay: Test 17: length of substituting chain, L1210 (Table XIII); type: in vivo, mouse; details: day +4
# Description: Test 17: Relationship between the length of the substituting chain and the activity.
# However compound 21 is less toxic (50 mg/kg for compound 21 and 25 mg/kg for compound 23), it has a higher ILS% than compound 23 and 1 mouse survived up to 60 days.
# [5] = system: mice; assay: Test 21: toxicity after intraperitoneal injection
# Description: All drugs were dissolved in aqueous solutions adjusted at pH 5 with acetic acid and inoculated to the mice under a volume of 0.1 ml I.P. after dilution in Mac Coy's medium.
# The toxicity of the drugs after intraperitoneal injection was estimated from the mortality rate up to the 30th day.
# [6] = Table VII, 10^5 cells, example 7 0.2 mg/mouse, ON COVIN 0.5 μg/mouse
# [7] = Table V, 10^4 cells, doses mg/mouse: example 7 0.2, Thiotepa 0.1, Mitomycine 0.016, BCNU 0.1, Methotrexate 0.250
# [8] = Table V, 10^4 cells, mg/mouse: example 7 0.2, Thiotepa 0.1, Mitomycine 0.016, BCNU 0.1, Methotrexate 0.250, Endoxan 4
# [9] = Table VI, 10^5 cells, mg/mouse: Thiotepa 0.1, Mitomycine C 0.016, BCNU 0.1, Methotrexate 0.250, example 7 0.2, Endoxan 4
Compound,"ILS % [1, 7] [%]","MTS (mean survival time) [1, 7]","Range of death [1, 8] [days]","ILS % [1, 9] [%]","MTS (mean survival time) [1, 9]","Range of death [1, 9]",also measured
CC[C@]1(O)C[C@H]2CN(CCc3c([nH]c4ccccc34)[C@@](C(=O)OC)(c3cc4c(cc3OC)N(C=O)[C@H]3[C@@](O)(C(=O)OC)[C@H](OC(C)=O)[C@]5(CC)C=CCN6CC[C@]43[C@@H]65)C2)C1 [ON COVIN],,,,,,,"ILS % [1, 6]: 3.85%; MTS (mean survival time) [1, 6]: 10.8; Range of death [1, 6]: 10-13"
S=P(N1CC1)(N1CC1)N1CC1 [Thiotepa],0,11,10 to 11,1.54,9.2,9-10,
CN(Cc1cnc2nc(N)nc(N)c2n1)c1ccc(C(=O)N[C@@H](CCC(=O)O)C(=O)O)cc1 [Methotrexate],44.62,15.9,15 to 17,39.35,12.62,12-14,
"Cc1c2ccnc(Cl)c2cc2c1[nH]c1ccncc12 [Example 6, 1-chloro-5-methyl-dipyrido [4,3-b][3,4-f] indole]",,,,,,,Activity (ratio of the LD50 of HUM to the LD50 of the product tested) [2]: 0.3; toxicity in L 1210 test [3]: toxic; ILS % (difference with the controls) ([3]; 10^4 and 10^3 cells): no difference
O=NN(CCCl)C(=O)NCCCl [BCNU],0.9,11.1,10 to 12,0,8.8,8-9,
"CCN(CC)CCCC(C)Nc1nccc2c(C)c3[nH]c4ccncc4c3cc12 (stereo not drawn) [Example 10, 1-[(α-methyl-σ-diethylamino-butyl)-amino]-5-methyl-dipyrido-[4,3-b][3,4-f] indole]",,,,,,,"ILS % [4]: 56.25%; Survivors up to 60 days [4]: 0; MST ([4]; control MST 11.2): 17.5; Range of death ([4]; control MST 11.2): 12-20; time of deaths after drug administration ([5]; IP): 4 to 6 days; minimal quantity resulting in 100% deaths ([5]; mouse, in vivo, ip, 43200 min): 50 mg/kg"
